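Grown in 96-well plates, cells were treated for 48 hours with each compound at five concentrations. Insufficient inhibition: endpoint recorded as highest concentration tested. GI50: concentration for 50% inhibition of growth.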 The source made the active and inactive calls. Rule as the data show it: active = GI50 up to about 1.1 µM and inactive = higher.
How the values were obtained:
Assay in all cases: NCI tumour cell line growth inhibition, 48 h
[1] = tested on: SW-620
[2] = tested on: TK-10
[3] = tested on: HCT-116
[4] = tested on: MOLT-4
[5] = tested on: A549
[6] = tested on: NCI-H460
[7] = tested on: M14
[8] = tested on: UACC-257
[9] = tested on: SNB-75
[10] = tested on: EKVX
[11] = tested on: COLO 205
[12] = tested on: HCT-15
[13] = tested on: SK-MEL-28
[14] = tested on: SN12C
[15] = tested on: OVCAR-3
[16] = tested on: HL-60
[17] = tested on: MDA-MB-435
[18] = tested on: RXF 393
[19] = tested on: NCI/ADR-RES
[20] = tested on: MDA-MB-231
[21] = tested on: NCI-H522
[22] = tested on: HT-29
[23] = tested on: T47D
[24] = tested on: LOX IMVI
[25] = tested on: SK-MEL-2
[26] = tested on: OVCAR-8
[27] = tested on: NCI-H23
[28] = tested on: U-251
[29] = tested on: BT-549
[30] = tested on: DU-145
[31] = tested on: SF-295
[32] = tested on: HOP-92
[33] = tested on: ACHN
[34] = tested on: Malme-3M
[35] = tested on: CCRF-CEM
[36] = tested on: SK-OV-3
[37] = tested on: Hs-578T
[38] = tested on: RPMI-8226
[39] = tested on: SF-539
[40] = tested on: K562
[41] = tested on: SF-268
[42] = tested on: A498
[43] = tested on: KM12
[44] = tested on: CAKI-1
[45] = tested on: MDA-N
[46] = tested on: IGROV-1
[47] = tested on: SK-MEL-5
[48] = tested on: UO-31
[49] = tested on: OVCAR-5
[50] = tested on: MCF7
[51] = tested on: SNB-19
[52] = tested on: HCC 2998
[53] = tested on: PC-3
[54] = tested on: HOP-62
[55] = tested on: UACC-62
[56] = tested on: 786-0
[57] = tested on: SR
[58] = tested on: NCI-H226
[59] = tested on: OVCAR-4

COc1ccc(OC)c2sc(N3C(=O)/C(=C/c4ccc(Cl)cc4)N=C3c3ccccc3)nc12
GI50 [1]: 67.9 µM (inactive)
GI50 [2]: 72.6 µM (inactive)
GI50 [3]: > 100 µM (inactive)
GI50 [4]: 24.7 µM (inactive)
GI50 [5]: > 100 µM (inactive)
GI50 [6]: 80.5 µM (inactive)
GI50 [7]: > 100 µM (inactive)
GI50 [8]: 51.2 µM (inactive)
GI50 [9]: 89.3 µM (inactive)
GI50 [10]: > 100 µM (inactive)
GI50 [11]: > 100 µM (inactive)
GI50 [12]: 98.4 µM
GI50 [13]: > 100 µM (inactive)
GI50 [14]: > 100 µM (inactive)
GI50 [15]: 46.3 µM (inactive)
GI50 [16]: 40.6 µM (inactive)
GI50 [17]: 30.8 µM (inactive)
GI50 [18]: 78.5 µM (inactive)
GI50 [19]: > 100 µM (inactive)
GI50 [20]: > 100 µM (inactive)
GI50 [21]: 48.9 µM (inactive)
GI50 [22]: > 100 µM (inactive)
GI50 [23]: 23.3 µM (inactive)
GI50 [24]: 34.2 µM (inactive)
GI50 [25]: > 100 µM (inactive)
GI50 [26]: 60.3 µM (inactive)
GI50 [27]: > 100 µM (inactive)
GI50 [28]: 40.7 µM (inactive)
GI50 [29]: > 100 µM (inactive)
GI50 [30]: > 100 µM (inactive)
GI50 [31]: 76.6 µM (inactive)
GI50 [32]: 49.5 µM (inactive)
GI50 [33]: > 100 µM (inactive)
GI50 [34]: > 100 µM (inactive)
GI50 [35]: 37 µM (inactive)
GI50 [36]: > 100 µM (inactive)
GI50 [37]: > 100 µM (inactive)
GI50 [38]: 33.7 µM (inactive)
GI50 [39]: > 100 µM (inactive)
GI50 [40]: 26.2 µM (inactive)
GI50 [41]: 98.9 µM (inactive)
GI50 [42]: > 100 µM (inactive)
GI50 [43]: 60 µM (inactive)
GI50 [44]: > 100 µM (inactive)
GI50 [45]: 34.2 µM (inactive)
GI50 [46]: 85.9 µM (inactive)
GI50 [47]: 65 µM (inactive)
GI50 [48]: > 100 µM (inactive)
GI50 [49]: > 100 µM (inactive)
GI50 [50]: 29.7 µM (inactive)
GI50 [51]: > 100 µM (inactive)
GI50 [52]: 80.2 µM (inactive)
GI50 [53]: 58.1 µM (inactive)
GI50 [54]: > 100 µM (inactive)
GI50 [55]: 76.6 µM (inactive)
GI50 [56]: 73.3 µM (inactive)
GI50 [57]: 43.4 µM (inactive)

O=S(=O)(N/C(=N\O)Nc1ccc(Cl)cc1)c1cc(S(=O)(=O)c2ccccc2)cs1
GI50 [1]: 19.8 µM (inactive)
GI50 [2]: 19.2 µM (inactive)
GI50 [3]: 13.6 µM (inactive)
GI50 [4]: 6.87 µM (inactive)
GI50 [5]: 24 µM (inactive)
GI50 [6]: 17.7 µM (inactive)
GI50 [7]: 15.1 µM (inactive)
GI50 [8]: 15.9 µM (inactive)
GI50 [10]: 16.3 µM (inactive)
GI50 [11]: 18.7 µM (inactive)
GI50 [12]: 18.8 µM
GI50 [13]: 16 µM (inactive)
GI50 [14]: 15.2 µM (inactive)
GI50 [15]: 13.5 µM (inactive)
GI50 [16]: 2.81 µM (inactive)
GI50 [17]: 13.8 µM (inactive)
GI50 [18]: 16.3 µM (inactive)
GI50 [19]: 33.2 µM (inactive)
GI50 [20]: 20.3 µM (inactive)
GI50 [21]: 10.6 µM (inactive)
GI50 [22]: 21 µM (inactive)
GI50 [23]: 11.6 µM (inactive)
GI50 [24]: 15.5 µM (inactive)
GI50 [25]: 18.7 µM (inactive)
GI50 [26]: 15.8 µM (inactive)
GI50 [27]: 17.9 µM (inactive)
GI50 [28]: 13.7 µM (inactive)
GI50 [29]: 15.5 µM (inactive)
GI50 [30]: 18 µM (inactive)
GI50 [31]: 15.8 µM (inactive)
GI50 [32]: 9.62 µM (inactive)
GI50 [58]: 28.6 µM (inactive)
GI50 [33]: 16.1 µM (inactive)
GI50 [34]: 14.2 µM (inactive)
GI50 [35]: 11.2 µM (inactive)
GI50 [37]: 13.6 µM (inactive)
GI50 [38]: 7.87 µM (inactive)
GI50 [39]: 14.3 µM (inactive)
GI50 [40]: 10.4 µM (inactive)
GI50 [41]: 11.5 µM (inactive)
GI50 [42]: 13.8 µM (inactive)
GI50 [43]: 22.2 µM (inactive)
GI50 [44]: 16.6 µM (inactive)
GI50 [45]: 15.8 µM (inactive)
GI50 [46]: 17.9 µM (inactive)
GI50 [47]: 9.08 µM (inactive)
GI50 [48]: 14.3 µM (inactive)
GI50 [49]: 16.5 µM (inactive)
GI50 [59]: 12.9 µM (inactive)
GI50 [50]: 17.3 µM (inactive)
GI50 [51]: 17.9 µM (inactive)
GI50 [52]: 13.4 µM (inactive)
GI50 [53]: 15 µM (inactive)
GI50 [54]: 17.5 µM (inactive)
GI50 [55]: 14.8 µM (inactive)
GI50 [56]: 15.7 µM (inactive)
GI50 [57]: 6.21 µM (inactive)

Nc1cc(Cl)cc2cc(Cl)cnc12
GI50 [1]: > 100 µM (inactive)
GI50 [2]: > 100 µM (inactive)
GI50 [3]: > 100 µM (inactive)
GI50 [4]: 44.5 µM (inactive)
GI50 [5]: > 100 µM (inactive)
GI50 [6]: > 100 µM (inactive)
GI50 [7]: > 100 µM (inactive)
GI50 [8]: > 100 µM (inactive)
GI50 [9]: 40.3 µM (inactive)
GI50 [10]: 39.9 µM (inactive)
GI50 [11]: > 100 µM (inactive)
GI50 [12]: > 100 µM
GI50 [13]: > 100 µM (inactive)
GI50 [14]: > 100 µM (inactive)
GI50 [15]: > 100 µM (inactive)
GI50 [16]: 43.1 µM (inactive)
GI50 [17]: > 100 µM (inactive)
GI50 [18]: > 100 µM (inactive)
GI50 [19]: > 100 µM (inactive)
GI50 [20]: > 100 µM (inactive)
GI50 [21]: 57 µM (inactive)
GI50 [22]: > 100 µM (inactive)
GI50 [23]: 26.4 µM (inactive)
GI50 [24]: > 100 µM (inactive)
GI50 [26]: > 100 µM (inactive)
GI50 [27]: > 100 µM (inactive)
GI50 [28]: > 100 µM (inactive)
GI50 [29]: > 100 µM (inactive)
GI50 [30]: > 100 µM (inactive)
GI50 [31]: > 100 µM (inactive)
GI50 [32]: 31.8 µM (inactive)
GI50 [58]: > 100 µM (inactive)
GI50 [33]: > 100 µM (inactive)
GI50 [34]: > 100 µM (inactive)
GI50 [35]: 14 µM (inactive)
GI50 [36]: > 100 µM (inactive)
GI50 [37]: 89.7 µM (inactive)
GI50 [38]: > 100 µM (inactive)
GI50 [39]: > 100 µM (inactive)
GI50 [40]: > 100 µM (inactive)
GI50 [41]: 82.6 µM (inactive)
GI50 [42]: 49 µM (inactive)
GI50 [43]: > 100 µM (inactive)
GI50 [44]: > 100 µM (inactive)
GI50 [45]: > 100 µM (inactive)
GI50 [46]: 93.1 µM (inactive)
GI50 [47]: > 100 µM (inactive)
GI50 [48]: 34.8 µM (inactive)
GI50 [49]: > 100 µM (inactive)
GI50 [59]: > 100 µM (inactive)
GI50 [50]: > 100 µM (inactive)
GI50 [51]: > 100 µM (inactive)
GI50 [52]: > 100 µM (inactive)
GI50 [53]: 72.3 µM (inactive)
GI50 [54]: > 100 µM (inactive)
GI50 [55]: 75.2 µM (inactive)
GI50 [56]: > 100 µM (inactive)
GI50 [57]: 38 µM (inactive)

Source: ChEMBL document CHEMBL1201862, “PubChem BioAssay data set” (2004)
